The data set can be described thus: recombinant UMI read abundance after kanamycin selection (control-corrected) (log10(CPM+1)); higher = more efficient recombination; extreme values may be limits of the assay; sequences stand for … in AGTGCAGAGAAAATCGGCCAGTTTTCTCTGCCTGCAGTCCGCATGCCGTGGGACCCCTTGGGTTCTAACCTGTTGCCTAGATTTATGCAGCGGACTGCCTTTCTCCCAAAGTGATAAACCGG…AGGTTGGTTTCACT; site = the 11-nt donor. An outline of the steps: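 The measure is log10(CPM+1) for recombinant UMIs. These were PCR-amplified across the donor–target junction and sequenced after Escherichia coli carrying a donor and donor-binding-loop pair library and a target plasmid with T7-inducible IS621 bridge recombinase was plated on IPTG (0.07 mM) plus kanamycin or unselected. CPM were averaged over two replicates and scaled by control-derived factors.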
As for “GAACATACATGGACCGGTTTTCCCGGTAATCCGTATTTGGG (site GAACATACTCC)”, the “recombinant UMI read abundance (log10)” value came out at 0.24.

“GAACGTACATGGACCGGTTTTCCCGGTAATCCGTATTTGCT (site GAACGTACTAG)”: the “recombinant UMI read abundance (log10)” value turned out to be 2.26.

Consider “GAAGATACATGGACCGGTTTTCCCGGTAATCCGTATTTGTT (site GAAGATACTAA)”, for which the “recombinant UMI read abundance (log10)” value came out at 2.29.

Take “GAAGATACATGGACCGGTTTTCCCGGTAATCCGTATTTGTT (site GAAGATCCTAA)”: the “recombinant UMI read abundance (log10)” value was 0.00569.

With “GAAGATACATGGACCGGTTTTCCCGGTAATCCGTATTTGTT (site GAAGATGCTAA)”, the “recombinant UMI read abundance (log10)” value turned out to be 0.602.

As to “GAAGATACATGGACCGGTTTTCCCGGTAATCCGTATTTGTT (site GAAGATTCTAA)”, the “recombinant UMI read abundance (log10)” value was 0.

As to “GAAGATTCATGGACCGGTTTTCCCGGTAATCCGTATTTGTT (site AAAGATTCTAA)”, the “recombinant UMI read abundance (log10)” value worked out at 1.45.

“GAAGATTCATGGACCGGTTTTCCCGGTAATCCGTATTTGTT (site CAAGATTCTAA)”: the “recombinant UMI read abundance (log10)” value worked out at 1.81.

Turning to “GAAGATTCATGGACCGGTTTTCCCGGTAATCCGTATTTGTT (site GAAAATTCTAA)”, the “recombinant UMI read abundance (log10)” value was 0.371.

As to “GAAGATTCATGGACCGGTTTTCCCGGTAATCCGTATTTGTT (site GAACATTCTAA)”, the “recombinant UMI read abundance (log10)” value was 0.

As for “GAAGATTCATGGACCGGTTTTCCCGGTAATCCGTATTTGTT (site GAAGAATCTAA)”, the “recombinant UMI read abundance (log10)” value was 1.3.

For “GAAGATTCATGGACCGGTTTTCCCGGTAATCCGTATTTGTT (site GAAGACTCTAA)”, the “recombinant UMI read abundance (log10)” value was found to be 1.24.

For the sequence “GAAGATTCATGGACCGGTTTTCCCGGTAATCCGTATTTGTT (site GAAGAGTCTAA)”, the “recombinant UMI read abundance (log10)” value amounted to 0.0122.

Take “GAAGATTCATGGACCGGTTTTCCCGGTAATCCGTATTTGTT (site GAAGATACTAA)”: the “recombinant UMI read abundance (log10)” value came to 0.46.

“GAAGATTCATGGACCGGTTTTCCCGGTAATCCGTATTTGTT (site GAAGATCCTAA)”: the “recombinant UMI read abundance (log10)” value is 1.92.

Consider “GAAGATTCATGGACCGGTTTTCCCGGTAATCCGTATTTGTT (site GAAGATGCTAA)”, for which the “recombinant UMI read abundance (log10)” value was 0.0075.

Consider “GAAGATTCATGGACCGGTTTTCCCGGTAATCCGTATTTGTT (site GAAGATTCTAA)”, for which the “recombinant UMI read abundance (log10)” value came to 2.86.

Take “GAAGATTCATGGACCGGTTTTCCCGGTAATCCGTATTTGTT (site GAAGATTCTAC)”: the “recombinant UMI read abundance (log10)” value came to 0.242.

On to “GAAGATTCATGGACCGGTTTTCCCGGTAATCCGTATTTGTT (site GAAGATTCTAG)”, for which the “recombinant UMI read abundance (log10)” value stood at 0.838.

Consider “GAAGATTCATGGACCGGTTTTCCCGGTAATCCGTATTTGTT (site GAAGATTCTAT)”, for which the “recombinant UMI read abundance (log10)” value was 1.5.

Take “GAAGATTCATGGACCGGTTTTCCCGGTAATCCGTATTTGTT (site GAAGATTCTCA)”: the “recombinant UMI read abundance (log10)” value came to 0.868.

In the case of “GAAGATTCATGGACCGGTTTTCCCGGTAATCCGTATTTGTT (site GAAGATTCTGA)”, the “recombinant UMI read abundance (log10)” value was 0.

Regarding “GAAGATTCATGGACCGGTTTTCCCGGTAATCCGTATTTGTT (site GAAGATTCTTA)”, the “recombinant UMI read abundance (log10)” value turned out to be 1.2.

On to “GAAGATTCATGGACCGGTTTTCCCGGTAATCCGTATTTGTT (site GAAGCTTCTAA)”, for which the “recombinant UMI read abundance (log10)” value worked out at 0.0109.

As to “GAAGATTCATGGACCGGTTTTCCCGGTAATCCGTATTTGTT (site GAAGGTTCTAA)”, the “recombinant UMI read abundance (log10)” value worked out at 0.0539.

Regarding “GAAGATTCATGGACCGGTTTTCCCGGTAATCCGTATTTGTT (site GAAGTTTCTAA)”, the “recombinant UMI read abundance (log10)” value was found to be 0.

For “GAAGATTCATGGACCGGTTTTCCCGGTAATCCGTATTTGTT (site GAATATTCTAA)”, the “recombinant UMI read abundance (log10)” value is 0.

Regarding “GAAGATTCATGGACCGGTTTTCCCGGTAATCCGTATTTGTT (site GACGATTCTAA)”, the “recombinant UMI read abundance (log10)” value came out at 0.

For the sequence “GAAGATTCATGGACCGGTTTTCCCGGTAATCCGTATTTGTT (site GAGGATTCTAA)”, the “recombinant UMI read abundance (log10)” value was 0.

“GAAGATTCATGGACCGGTTTTCCCGGTAATCCGTATTTGTT (site GATGATTCTAA)”: the “recombinant UMI read abundance (log10)” value turned out to be 0.296.

On to “GAAGATTCATGGACCGGTTTTCCCGGTAATCCGTATTTGTT (site GCAGATTCTAA)”, for which the “recombinant UMI read abundance (log10)” value came out at 0.013.

In the case of “GAAGATTCATGGACCGGTTTTCCCGGTAATCCGTATTTGTT (site GGAGATTCTAA)”, the “recombinant UMI read abundance (log10)” value came out at 0.379.

In the case of “GAAGATTCATGGACCGGTTTTCCCGGTAATCCGTATTTGTT (site GTAGATTCTAA)”, the “recombinant UMI read abundance (log10)” value was 0.39.

Consider “GAAGATTCATGGACCGGTTTTCCCGGTAATCCGTATTTGTT (site TAAGATTCTAA)”, for which the “recombinant UMI read abundance (log10)” value worked out at 2.36.

In the case of “GAAGCAACATGGACCGGTTTTCCCGGTAATCCGTATTTGCC (site GAAGCAACTGG)”, the “recombinant UMI read abundance (log10)” value came out at 2.09.

As to “GAAGCTTCATGGACCGGTTTTCCCGGTAATCCGTATTTGTT (site GAAGATTCTAA)”, the “recombinant UMI read abundance (log10)” value came to 0.

For “GAAGCTTCATGGACCGGTTTTCCCGGTAATCCGTATTTGTT (site GAAGCTTCTAA)”, the “recombinant UMI read abundance (log10)” value was found to be 1.74.

Turning to “GAAGCTTCATGGACCGGTTTTCCCGGTAATCCGTATTTGTT (site GAAGGTTCTAA)”, the “recombinant UMI read abundance (log10)” value worked out at 0.

Turning to “GAAGCTTCATGGACCGGTTTTCCCGGTAATCCGTATTTGTT (site GAAGTTTCTAA)”, the “recombinant UMI read abundance (log10)” value amounted to 0.

With “GAAGTATCATGGACCGGTTTTCCCGGTAATCCGTATTTGCA (site ACAGTATCTTG)”, the “recombinant UMI read abundance (log10)” value was 1.54.

Regarding “GAAGTATCATGGACCGGTTTTCCCGGTAATCCGTATTTGCA (site GAAGTATCTTG)”, the “recombinant UMI read abundance (log10)” value is 2.6.

For the sequence “GAATATGCATGGACCGGTTTTCCCGGTAATCCGTATTTGAA (site GAATATGCTTT)”, the “recombinant UMI read abundance (log10)” value worked out at 2.09.

On to “GAATCCGCATGGACCGGTTTTCCCGGTAATCCGTATTTGTC (site GAATCCGCTGA)”, for which the “recombinant UMI read abundance (log10)” value amounted to 2.15.

Take “GAATCTACATGGACCGGTTTTCCCGGTAATCCGTATTTGCG (site GAATCTACTCG)”: the “recombinant UMI read abundance (log10)” value came to 1.04.

For “GAATGAGCATGGACCGGTTTTCCCGGTAATCCGTATTTGGA (site GAATGAGCTTC)”, the “recombinant UMI read abundance (log10)” value worked out at 1.28.

For the sequence “GAATGCCCATGGACCGGTTTTCCCGGTAATCCGTATTTGCA (site GAATGACCTTG)”, the “recombinant UMI read abundance (log10)” value amounted to 0.

With “GAATGCCCATGGACCGGTTTTCCCGGTAATCCGTATTTGCA (site GAATGCCCTTG)”, the “recombinant UMI read abundance (log10)” value came out at 1.25.

On to “GAATGCCCATGGACCGGTTTTCCCGGTAATCCGTATTTGCA (site GAATGGCCTTG)”, for which the “recombinant UMI read abundance (log10)” value was 0.

In the case of “GAATGCCCATGGACCGGTTTTCCCGGTAATCCGTATTTGCA (site GAATGTCCTTG)”, the “recombinant UMI read abundance (log10)” value worked out at 0.

Turning to “GAATGTCCATGGACCGGTTTTCCCGGTAATCCGTATTTGCA (site GAATGACCTTG)”, the “recombinant UMI read abundance (log10)” value was determined as 0.

For “GAATGTCCATGGACCGGTTTTCCCGGTAATCCGTATTTGCA (site GAATGCCCTTG)”, the “recombinant UMI read abundance (log10)” value worked out at 0.

For the sequence “GAATGTCCATGGACCGGTTTTCCCGGTAATCCGTATTTGCA (site GAATGGCCTTG)”, the “recombinant UMI read abundance (log10)” value is 0.

As for “GAATGTCCATGGACCGGTTTTCCCGGTAATCCGTATTTGCA (site GAATGTCCTTG)”, the “recombinant UMI read abundance (log10)” value stood at 1.28.

Take “GAATTCCCATGGACCGGTTTTCCCGGTAATCCGTATTTGCT (site AAATTCCCTAG)”: the “recombinant UMI read abundance (log10)” value worked out at 0.

As for “GAATTCCCATGGACCGGTTTTCCCGGTAATCCGTATTTGCT (site CAATTCCCTAG)”, the “recombinant UMI read abundance (log10)” value turned out to be 0.484.

Consider “GAATTCCCATGGACCGGTTTTCCCGGTAATCCGTATTTGCT (site GAATTCCCTAG)”, for which the “recombinant UMI read abundance (log10)” value came to 0.671.

Take “GAATTCCCATGGACCGGTTTTCCCGGTAATCCGTATTTGCT (site TAATTCCCTAG)”: the “recombinant UMI read abundance (log10)” value turned out to be 0.902.

“GACAAACCATGGACCGGTTTTCCCGGTAATCCGTATTTGGC (site GACAAACCTAC)”: the “recombinant UMI read abundance (log10)” value is 0.

“GACAAACCATGGACCGGTTTTCCCGGTAATCCGTATTTGGC (site GACAAACCTCC)”: the “recombinant UMI read abundance (log10)” value was 0.

As to “GACAAACCATGGACCGGTTTTCCCGGTAATCCGTATTTGGC (site GACAAACCTGC)”, the “recombinant UMI read abundance (log10)” value was 0.

For the sequence “GACAAACCATGGACCGGTTTTCCCGGTAATCCGTATTTGGC (site GACAAACCTTC)”, the “recombinant UMI read abundance (log10)” value was found to be 0.

With “GACAAAGCATGGACCGGTTTTCCCGGTAATCCGTATTTGGT (site GACAAAACTAC)”, the “recombinant UMI read abundance (log10)” value stood at 0.00355.

For the sequence “GACAAAGCATGGACCGGTTTTCCCGGTAATCCGTATTTGGT (site GACAAACCTAC)”, the “recombinant UMI read abundance (log10)” value stood at 0.

With “GACAAAGCATGGACCGGTTTTCCCGGTAATCCGTATTTGGT (site GACAAAGCTAC)”, the “recombinant UMI read abundance (log10)” value came to 1.13.

As for “GACAAAGCATGGACCGGTTTTCCCGGTAATCCGTATTTGGT (site GACAAATCTAC)”, the “recombinant UMI read abundance (log10)” value was determined as 0.

With “GACAAGACATGGACCGGTTTTCCCGGTAATCCGTATTTGTG (site GACAAGACTCA)”, the “recombinant UMI read abundance (log10)” value was found to be 1.73.

As for “GACAATACATGGACCGGTTTTCCCGGTAATCCGTATTTGGC (site GACAATACTGC)”, the “recombinant UMI read abundance (log10)” value amounted to 1.59.

For the sequence “GACACGCCATGGACCGGTTTTCCCGGTAATCCGTATTTGTA (site GACACGCCTTA)”, the “recombinant UMI read abundance (log10)” value turned out to be 0.0256.
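Note: IS621 bridge recombinase in Escherichia coli cells against a fixed T5 target plasmid.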
